Measured values reported in patent US20240254129A1, “HETEROCYCLIC COMPOUNDS AND USES THEREOF” (Kumquat Biosciences Inc., priority 2021, published 2024).
pIC50: −log10 of the molar value. Where two headings read alike, the source gives them in different places.

How the values were obtained:
[1] = target: GST-tagged K-Ras mutant / His-tagged hSOS1 (Homo sapiens, UniProt P01116); test: HTRF assay, K-Ras mutant / SOS1 interaction; format: binding; conditions: read-out: IC50 against mutant Kras
In short: (§1)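 HTRF read-out (ex 337, em 620 and 665 nm) of Ras–SOS1 equilibrium binding: Eu-anti-GST on GST-K-Ras, XL665-anti-6His on His-hSOS1. Incubation about 10 min or longer; IC50 fitted from emission ratio, compounds in duplicate at 10 μM down to 0.01 μM.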

[2] = target: T1, wildtype Kras / hSOS1 (Homo sapiens, UniProt P01116); test: HTRF assay, wildtype Kras / SOS1 interaction; format: binding; conditions: read-out: IC50 against wildtype Kras
T1 construct: made in house; host or cells: E. coli BL21 (DE3)
In short: as §1

[3] = compound nos. 102-196, general methodology of example 5
[4] = compound nos. 201-213, general methodology of example 5

T1 sequence (P01116 1-188 isoform P01116-2): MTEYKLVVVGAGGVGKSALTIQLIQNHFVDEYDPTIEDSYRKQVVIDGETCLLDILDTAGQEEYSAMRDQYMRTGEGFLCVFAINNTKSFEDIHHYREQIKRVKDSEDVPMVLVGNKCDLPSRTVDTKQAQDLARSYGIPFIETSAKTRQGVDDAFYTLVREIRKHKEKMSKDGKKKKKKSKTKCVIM
GST-tagged K-Ras mutant / His-tagged hSOS1, sequence (P01116 whole entry G12D, form open): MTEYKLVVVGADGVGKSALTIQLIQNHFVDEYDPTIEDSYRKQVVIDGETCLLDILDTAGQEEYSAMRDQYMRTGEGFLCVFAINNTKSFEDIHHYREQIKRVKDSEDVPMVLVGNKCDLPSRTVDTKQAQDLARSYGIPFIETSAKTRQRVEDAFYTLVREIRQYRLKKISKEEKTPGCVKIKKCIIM

Structure (SMILES)	pIC50 [1, 4]	pIC50 [2, 4]	further results
Cc1ccnc(C(C)C)c1-n1c(=O)nc(N2CCNCC(F)(F)C2)c2cc(F)c(-c3cc(O)cc4ccccc34)nc21 [Compound 196, 4-(6,6-difluoro-1,4-diazepan-1-yl)-6-fluoro-7-(3-hydroxynaphthalen-1-yl)-1-(2-isopropyl-4-methyl-pyridin-3-yl)pyrido[2,3-d]-pyrimidin-2(1H)-one]			pIC50 [1, 3]: < 6.30; pIC50 [2, 3]: < 6.30
Nc1nc2c(-c3c(Cl)cc4c(N5CC6CNC(C6)C5)nc(OC[C@@]56CCCN5C[C@H](F)C6)nc4c3F)ccc(F)c2s1 (stereo partly drawn) [Compound 201, 4-(4-(3,6-diazabicyclo[3.2.1]octan-3-yl)-6-chloro-8-fluoro-2-(((2R,7aS)-2-fluorotetrahydro-1H-pyrrolizin-7a(5H)-yl)methoxy)quinazolin-7-yl)-7-fluorobenzo[d]thiazol-2-amine]	> 5.82	> 5.82	
Nc1nc2c(-c3c(Cl)cc4c(N5CC6CCC(C5)O6)nc(OC[C@@]56CCCN5C[C@H](F)C6)nc4c3F)ccc(F)c2s1 [Compound 203, 4-(4-(8-oxa-3-azabicyclo[3.2.1]octan-3-yl)-6-chloro-8-fluoro-2-(((2R,7aS)-2-fluorohexahydro-1H-pyrrolizin-7a-yl)methoxy)quinazolin-7-yl)-7-fluorobenzo[d]thiazol-2-amine]	> 5.82	> 5.82	
CN1[C@@H]2CC[C@H]1CN(c1nc(OC[C@@]34CCCN3C[C@H](F)C4)nc3c(F)c(-c4ccc(F)c5sc(N)nc45)c(Cl)cc13)C2 [Compound 205, 4-(6-chloro-8-fluoro-2-(((2R,7aS)-2-fluorotetra-hydro-1H-pyrrolizin-7a(5H)-yl)methoxy)-4-((1R,5S)-8-methyl-3,8-diazabicyclo[3.2.1]octan-3-yl)quinazolin-7-yl)-7-fluorobenzo[d]thiazol-2-amine]	> 5.82	> 5.82	
Nc1nc2c(-c3c(Cl)cc4c(N5C[C@H]6CC[C@@H](C5)N6)nc(OCCCN5CCCC5)nc4c3F)ccc(F)c2s1 [Compound 208, 4-(4-((1R,5S)-3,8-diaza-bicyclo[3.2.1]octan-3-yl)-6-chloro-8-fluoro-2-(3-(pyrrolidin-1-yl)propoxy)-quinazolin-7-yl)-7-fluoro-benzo[d]thiazol-2-amine]	> 5.82	> 5.82	
Oc1cc(-c2ccc3c(N4CC5CCC(C4)N5)nc(OC[C@@]45CCCN4C[C@H](F)C5)nc3c2F)c2ccccc2c1 [Compound 209, 4-(4-((1R,5S)-3,8-diaza-bicyclo[3.2.1]octan-3-yl)-8-fluoro-2-(((2R,7aS)-2-fluoro-tetrahydro-1H-pyrrolizin-7a(5H)-yl)methoxy)quin-azolin-7-yl)naphthalen-2-ol]	> 5.82	> 5.82	
CN(C)CC1(COc2nc(N3C[C@H]4CC[C@@H](C3)N4)c3cc(Cl)c(-c4ccc(F)c5sc(N)nc45)c(F)c3n2)CC1 [Compound 210]	> 5.82	> 5.82	
Nc1nc2c(-c3c(Cl)cc4c(N5[C@@H]6CC[C@H]5CNC6)nc(OC[C@@]56CCCN5C[C@H](F)C6)nc4c3F)ccc(F)c2s1 [Compound 301, 4-(4-((1R,5S)-3,8-diaza-bicyclo[3.2.1]octan-8-yl)-6-chloro-8-fluoro-2-(((2R,7aS)-2-fluorotetra-hydro-1H-pyrrolizin-7a(5H)-yl)methoxy)quinazolin-7-yl)-7-fluorobenzo[d]thiazol-2-amine]			pIC50 ([1]; compound nos. 301-306): > 5.82; pIC50 ([2]; compound nos. 301-306): > 5.82
Nc1nc2c(-c3c(Cl)cc4c(N5C6CCCC5CNC6)nc(OC[C@@]56CCCN5C[C@H](F)C6)nc4c3F)ccc(F)c2s1 [Compound 302, 4-(4-(3,9-diazabicyclo-[3.3.1]nonan-9-yl)-6-chloro-8-fluoro-2-(((2R,7aS)-2-fluorotetrahydro-1H-pyrrolizin-7a(5H)-yl)meth-oxy)quinazolin-7-yl)-7-fluorobenzo[d]thiazol-2-amine]			pIC50 ([1]; compound nos. 301-306): > 5.82; pIC50 ([2]; compound nos. 301-306): > 5.82

More lines, main results first:

pIC50 [1, 4]	pIC50 [2, 4]	Structure (SMILES)	further results
> 5.82	> 5.82	Oc1cc(-c2c(Cl)cc3c(N4C[C@H]5CC[C@@H](C4)N5)nc(OC[C@@]45CCCN4C[C@H](F)C5)nc3c2F)c2ccccc2c1 [Compound 202, 4-(4-((1R,5S)-3,8-diazabicyclo[3.2.1]octan-3-yl)-6-chloro-8-fluoro-2-(((2R,7aS)-2-fluorotetrahydro-1H-pyrrolizin-7a(5H)-yl)methoxy)quinazolin-7-yl)naphthalen-2-ol]	
> 5.82	> 5.82	Nc1nc2c(-c3c(Cl)cc4c(N5CC6CCC(C5)N6)nc(OC[C@@]56CCCN5C[C@H](F)C6)nc4c3F)cccc2o1 [Compound 204, 4-(4-((1R,5S)-3,8-diaza-bicyclo[3.2.1]octan-3-yl)-6-chloro-8-fluoro-2-(((2R,7aS)-2-fluorotetra-hydro-1H-pyrrolizin-7a(5H)-yl)methoxy)quin-azolin-7-yl)benzo[d]-oxazol-2-amine]	
> 5.82	> 5.82	Nc1nc2c(-c3c(Cl)cc4c(N5C[C@H]6CC[C@@H](C5)N6)nc(OC[C@@]56CCCN5C[C@H](F)C6)nc4c3F)ccc(F)c2s1 [Compound 206, 4-(4-((1R,5S)-3,8-diaza-bicyclo[3.2.1]octan-3-yl)-6-chloro-8-fluoro-2-(((2R,7aS)-2-fluorotetra-hydro-1H-pyrrolizin-7a(5H)-yl)methoxy)quinazolin-7-yl)-7-fluorobenzo[d]thiazol-2-amine]	
> 5.82	> 5.82	Nc1nc2c(-c3ccc4c(N5CC6CCC(C5)N6)nc(OC[C@@]56CCCN5C[C@H](F)C6)nc4c3F)ccc(F)c2s1 [Compound 207, 4-(4-((1R,5S)-3,8-diaza-bicyclo[3.2.1]octan-3-yl)-8-fluoro-2-(((2R,7aS)-2-fluoro-tetrahydro-1H-pyrrolizin-7a(5H)-yl)methoxy)quin-azolin-7-yl)-7-fluorobenzo-[d]thiazol-2-amine]	
> 5.82	> 5.82	Nc1nc2c(-c3c(Cl)cc4c(N5C[C@H]6CC[C@@H](C5)N6)nc(OCC5(CN6CCCC6)CC5)nc4c3F)ccc(F)c2s1 [Compound 211, 4-(4-((1R,5S)-3,8-diaza-bicyclo[3.2.1]octan-3-yl)-6-chloro-8-fluoro-2-((1-(pyrrolidin-1-ylmethyl)-cyclopropyl)methoxy)quin-azolin-7-yl)-7-fluorobenzo-[d]thiazol-2-amine]	
> 5.82	> 5.82	Nc1nc2c(-c3c(Cl)cc4c(N5C[C@H]6CC[C@@H](C5)N6)nc(OCC5(CN6CCCC6)CC5)nc4c3F)cccc2o1 [Compound 212, 4-(4-((1R,5S)-3,8-diaza-bicyclo[3.2.1]octan-3-yl)-6-chloro-8-fluoro-2-((1-(pyrrolidin-1-ylmethyl)-cyclopropyl)methoxy)quin-azolin-7-yl)benzo[d]oxazol-2-amine]	
> 5.82	> 5.82	Nc1nc2c(-c3c(Cl)cc4c(N5CC6CCC(C5)NC6)nc(OC[C@@]56CCCN5C[C@H](F)C6)nc4c3F)ccc(F)c2s1 (stereo partly drawn) [Compound 213, 4-(4-(3,6-diazabicyclo-[3.2.2]nonan-3-yl)-6-chloro-8-fluoro-2-(((2R,7aS)-2-fluorotetrahydro-1H-pyrrolizin-7a(5H)-yl)meth-oxy)quinazolin-7-yl)-7-fluorobenzo[d]thiazol-2-amine]	
